Results on 18 compounds are retold here after the NIST ThermoML archive (doi:10.1016/j.jct.2011.02.012).

Numbers after ± are expanded uncertainties.

For series [1] the following is noted: 101.33 kPa, Liquid, Vibrating tube method.
A short description of series [2]: activity coefficient (dimensionless); of the first substance listed, at infinite dilution; xn = mol fraction of the nth substance listed. The following applies: Liquid, Chromatography, x1 = 0.

On to `CCn1cc[n+](C)c1.N#C[B-](C#N)(C#N)C#N` [1-ethyl-3-methylimidazolium tetracyanoborate], for which the mass density was 1036.27 ± 0.26 kg/m3 in series [1] (298.15 K); 1028.4 ± 0.25 kg/m3 in series [1] (308.15 K); 1020.64 ± 0.25 kg/m3 in series [1] (318.15 K); 1012.97 ± 0.24 kg/m3 in series [1] (328.15 K); 1005.4 ± 0.24 kg/m3 in series [1] (338.15 K); 997.91 ± 0.23 kg/m3 in series [1] (348.15 K). For the same compound, the mass density in series [1] (358.15 K) was 990.51 ± 0.23 kg/m3.
In the case of `C1CCCCC1` [cyclohexane] + CCn1cc[n+](C)c1.N#C[B-](C#N)(C#N)C#N, the activity coefficient in series [2] (298.15 K) is 16.7 ± 1.1; in series [2] (308.15 K) it was 15.2 ± 1; in series [2] (318.15 K), 14.3 ± 1; in series [2] (328.15 K) it was 13.2 ± 0.9; in series [2] (338.15 K), 12.3 ± 0.8; in series [2] (348.15 K), 11.6 ± 0.8. For the same compound, the activity coefficient in series [2] (358.15 K) came out at 10.9 ± 0.7.
Consider `CC(C)CC(C)(C)C` [2,2,4-trimethylpentane] + CCn1cc[n+](C)c1.N#C[B-](C#N)(C#N)C#N, for which the activity coefficient in series [2] (298.15 K) was 60.3 ± 4.1; in series [2] (308.15 K) it was 54.3 ± 3.7; in series [2] (318.15 K), 50.4 ± 3.5; in series [2] (328.15 K), 46.4 ± 3.2; in series [2] (338.15 K), 42.3 ± 2.9; in series [2] (348.15 K) it was 39.5 ± 2.7. Besides, in series [2] (358.15 K), the activity coefficient came to 36.7 ± 2.5.
As for `CCO` [ethanol] + CCn1cc[n+](C)c1.N#C[B-](C#N)(C#N)C#N, the activity coefficient in series [2] (298.15 K) was found to be 1.58 ± 0.1; in series [2] (308.15 K) it was 1.43 ± 0.09; in series [2] (318.15 K) it was 1.32 ± 0.09; in series [2] (328.15 K) it was 1.21 ± 0.08; in series [2] (338.15 K), 1.13 ± 0.07; in series [2] (348.15 K) it was 1.05 ± 0.07. Moreover, the activity coefficient in series [2] (358.15 K) was determined as 0.986 ± 0.062.
In the case of `CCCCO` [butan-1-ol] + CCn1cc[n+](C)c1.N#C[B-](C#N)(C#N)C#N, the activity coefficient in series [2] (298.15 K) turned out to be 2.72 ± 0.19; in series [2] (308.15 K), 2.41 ± 0.16; in series [2] (318.15 K), 2.16 ± 0.15; in series [2] (328.15 K), 1.95 ± 0.13; in series [2] (338.15 K) it was 1.79 ± 0.12; in series [2] (348.15 K), 1.65 ± 0.11. Further, in series [2] (358.15 K), the activity coefficient came out at 1.53 ± 0.1.
`CCc1ccccc1` [ethylbenzene] + CCn1cc[n+](C)c1.N#C[B-](C#N)(C#N)C#N: the activity coefficient in series [2] (298.15 K) was determined as 2.6 ± 0.18; in series [2] (308.15 K), 2.6 ± 0.18; in series [2] (318.15 K), 2.61 ± 0.18; in series [2] (328.15 K), 2.61 ± 0.18; in series [2] (338.15 K), 2.61 ± 0.18; in series [2] (348.15 K), 2.61 ± 0.18. Also, the activity coefficient in series [2] (358.15 K) amounted to 2.61 ± 0.18.
As for `CC(C)=O` [acetone] + CCn1cc[n+](C)c1.N#C[B-](C#N)(C#N)C#N, the activity coefficient in series [2] (308.15 K) turned out to be 0.443 ± 0.036; in series [2] (318.15 K) it was 0.454 ± 0.036; in series [2] (328.15 K), 0.466 ± 0.036; in series [2] (338.15 K), 0.475 ± 0.037; in series [2] (348.15 K), 0.488 ± 0.037; in series [2] (358.15 K) it was 0.43 ± 0.035.
`C=CCCCCCC` [oct-1-ene] + CCn1cc[n+](C)c1.N#C[B-](C#N)(C#N)C#N: the activity coefficient is 35 ± 2.4 in series [2] (298.15 K); 32 ± 2.2 in series [2] (308.15 K); 29.9 ± 2 in series [2] (318.15 K); 27.8 ± 1.9 in series [2] (328.15 K); 25.9 ± 1.8 in series [2] (338.15 K); 24.5 ± 1.7 in series [2] (348.15 K). For the same compound, the activity coefficient in series [2] (358.15 K) came to 23.1 ± 1.6.
Regarding `Cc1ccccc1C` [1,2-dimethylbenzene] + CCn1cc[n+](C)c1.N#C[B-](C#N)(C#N)C#N, the activity coefficient stood at 2.17 ± 0.15 in series [2] (298.15 K); 2.18 ± 0.15 in series [2] (308.15 K); 2.2 ± 0.15 in series [2] (318.15 K); 2.21 ± 0.15 in series [2] (328.15 K); 2.22 ± 0.15 in series [2] (338.15 K); 2.24 ± 0.15 in series [2] (348.15 K). The activity coefficient in series [2] (358.15 K) was determined as 2.25 ± 0.15.
Consider `CCCCCC` [hexane] + CCn1cc[n+](C)c1.N#C[B-](C#N)(C#N)C#N, for which the activity coefficient in series [2] (298.15 K) worked out at 33.8 ± 2.3; in series [2] (308.15 K), 30.7 ± 2.1; in series [2] (318.15 K), 28.9 ± 2; in series [2] (328.15 K), 26.3 ± 1.8; in series [2] (338.15 K) it was 24.5 ± 1.7; in series [2] (348.15 K), 23.1 ± 1.6. For the same compound, the activity coefficient in series [2] (358.15 K) was 21.8 ± 1.5.
Regarding `c1ccsc1` [thiophene] + CCn1cc[n+](C)c1.N#C[B-](C#N)(C#N)C#N, the activity coefficient in series [2] (298.15 K) is 0.938 ± 0.059; in series [2] (308.15 K), 0.949 ± 0.06; in series [2] (318.15 K), 0.958 ± 0.06; in series [2] (328.15 K), 0.966 ± 0.061; in series [2] (338.15 K) it was 0.976 ± 0.061; in series [2] (348.15 K) it was 0.983 ± 0.062. Moreover, the activity coefficient in series [2] (358.15 K) came to 0.992 ± 0.062.
Consider `C1CCCCCC1` [cycloheptane] + CCn1cc[n+](C)c1.N#C[B-](C#N)(C#N)C#N, for which the activity coefficient turned out to be 21.9 ± 1.5 in series [2] (298.15 K); 19.9 ± 1.4 in series [2] (308.15 K); 18.6 ± 1.3 in series [2] (318.15 K); 17 ± 1.2 in series [2] (328.15 K); 15.8 ± 1.1 in series [2] (338.15 K); 14.8 ± 1 in series [2] (348.15 K). Also, in series [2] (358.15 K), the activity coefficient amounted to 13.9 ± 1.
`C#CCCCCC` [1-heptyne] + CCn1cc[n+](C)c1.N#C[B-](C#N)(C#N)C#N: the activity coefficient stood at 5.74 ± 0.39 in series [2] (298.15 K); 5.66 ± 0.39 in series [2] (308.15 K); 5.58 ± 0.38 in series [2] (318.15 K); 5.51 ± 0.38 in series [2] (328.15 K); 5.45 ± 0.37 in series [2] (338.15 K); 5.39 ± 0.37 in series [2] (348.15 K). In addition, the activity coefficient in series [2] (358.15 K) came out at 5.33 ± 0.36.
Take `O` [water] + CCn1cc[n+](C)c1.N#C[B-](C#N)(C#N)C#N: the activity coefficient in series [2] (298.15 K) was 2.24 ± 0.15; in series [2] (308.15 K), 1.99 ± 0.14; in series [2] (318.15 K), 1.82 ± 0.12; in series [2] (328.15 K), 1.66 ± 0.11; in series [2] (338.15 K), 1.51 ± 0.1; in series [2] (348.15 K), 1.38 ± 0.09. In series [2] (358.15 K), the activity coefficient stood at 1.29 ± 0.08.
For the compound `C1CCOC1` [tetrahydrofuran] + CCn1cc[n+](C)c1.N#C[B-](C#N)(C#N)C#N, the activity coefficient came to 0.686 ± 0.046 in series [2] (298.15 K); 0.707 ± 0.047 in series [2] (308.15 K); 0.726 ± 0.048 in series [2] (318.15 K); 0.737 ± 0.049 in series [2] (328.15 K); 0.753 ± 0.05 in series [2] (338.15 K); 0.775 ± 0.051 in series [2] (348.15 K). Besides, the activity coefficient in series [2] (358.15 K) was 0.789 ± 0.051.
Consider `C1=CCCCC1` [cyclohexene] + CCn1cc[n+](C)c1.N#C[B-](C#N)(C#N)C#N, for which the activity coefficient in series [2] (298.15 K) stood at 7.25 ± 0.49; in series [2] (308.15 K), 6.92 ± 0.47; in series [2] (318.15 K), 6.67 ± 0.45; in series [2] (328.15 K), 6.44 ± 0.44; in series [2] (338.15 K) it was 6.17 ± 0.42; in series [2] (348.15 K), 6.01 ± 0.41. Moreover, the activity coefficient in series [2] (358.15 K) was found to be 5.81 ± 0.4.
Consider `C=CCCCCC` [1-heptene] + CCn1cc[n+](C)c1.N#C[B-](C#N)(C#N)C#N, for which the activity coefficient worked out at 22 ± 1.5 in series [2] (298.15 K); 20.4 ± 1.4 in series [2] (308.15 K); 19.3 ± 1.3 in series [2] (318.15 K); 18.3 ± 1.3 in series [2] (328.15 K); 17.3 ± 1.2 in series [2] (338.15 K); 16.6 ± 1.1 in series [2] (348.15 K). Moreover, the activity coefficient in series [2] (358.15 K) worked out at 15.7 ± 1.1.
Regarding `COC(C)(C)C` [2-methoxy-2-methylpropane] + CCn1cc[n+](C)c1.N#C[B-](C#N)(C#N)C#N, the activity coefficient amounted to 2.82 ± 0.19 in series [2] (298.15 K); 2.86 ± 0.19 in series [2] (308.15 K); 2.9 ± 0.2 in series [2] (318.15 K); 2.94 ± 0.2 in series [2] (328.15 K); 2.97 ± 0.2 in series [2] (338.15 K); 3.01 ± 0.2 in series [2] (348.15 K). Moreover, in series [2] (358.15 K), the activity coefficient worked out at 3.04 ± 0.21.
